Assay results taken from patent US10080728B2, “Hemostatic agent” (priority 2015, dated 2018).

What was measured:
eyeball pain = experiment: Eyeball pain in posttraumatic processes, VAS (Example 2.16); format: in vivo, human; details: eyeball lesions, instilled into the conjunctival sac
From the text: Evaluation of efficiency of the claimed substance for eyeball pain reduction in posttraumatic processes. The claimed substance solution was instilled into the conjunctival sac of patients with various lesions of the eyeball, including after surgery. As a reference, diclofenac eye drops were used. For efficiency evaluation the change in the pain sensation intensity on the visual analog scale (VAS) from 0 to 10 points was used.

postoperative pain = experiment: Postoperative pain syndrome after laparoscopic cholecystectomy, VAS (Example 2.8); format: in vivo, human
Procedure: Evaluation of efficiency of the claimed substance for pain reduction was studied in patients suffering the postoperative pain syndrome. After laparoscopic cholecystectomy the claimed substance was applied onto the affected areas of the patients in the form of a solution/spray in a concentration of 0.01% to 10%. As a comparison preparation for surface anesthesia oxybuprocaine was used. To evaluate efficiency the change in the pain sensation intensity on the visual analog scale (VAS) in 1 minute after application/administration of the preparation and after 2 days in case of everyday application was used.

[1] = system: corneal sensitivity of the rabbit's eye; experiment: Topical (corneal) anesthetic activity in rabbit's eye (Example 2.1); format: in vivo, rabbits; details: 0.5% aqueous solution into the conjunctival sac of the rabbit's eye
Procedure: A study to determine anesthetic activity was carried out in unanesthetized rabbits, which were placed in a special box with a hole to restrain the animal's head. The study was conducted to determine the threshold of sensitivity of the rabbit's eye to a tactile impact. For this purpose, a thin metal wire was used without injuring the cornea. The examined compound and the reference drug (oxybuprocaine) were administered into the conjunctival sac of the rabbit's eye in the form of a 0.5% aqueous solution with the total volume of up to 0.4 ml. Determination of topical anaesthesia was performed starting from the 1st minute of the study. The absence of the blinking reflex for 1 min (100 touches) was considered as an indicator of full anesthesia. Based on the collected data reflecting the changes in corneal sensitivity under the influence of the drugs, the beginning, the duration of complete (100%) anesthesia and the total duration of anesthesia were determined.
The relative activity of the tested compounds was calculated according to the Valet equation. The Rainier index is 852.4 for the claimed preparation and 63.5 for the reference preparation. The duration of anesthesia was 234 minutes for the claimed preparation and 24 min for oxibuprocaine.

[2] = system: bleeding from liver wounds; experiment: Hemostatic activity together with aluminum sulfate gel or silver nitrate solution (Example 1.6); format: in vivo, rabbits
Procedure: The influence of the claimed substance on the hemostatic function was examined in rabbits of both sexes weighing 2000-4000 g. The experiments were carried out under general anesthesia. The animals underwent a laparotomy with a section made along the white line of the abdomen. The intestine was exteriorized into the wound and limited by wipes moistened with 0.9% sodium chloride solution (temperature […]), as well as the front surface of the liver. A superficial wound of the liver by the area of 1.5 cm^2 and the depth of 0.1 cm was inflicted by means of a razor. […] An animal model was used in the experiment, as described in Example No. 4. Hemostatic activity was evaluated by the change of the bleeding intensity.

[3] = system: itch at genital candidiasis; experiment: Itch reduction at genital candidiasis, ISS (Example 2.3); format: in vivo; details: rounded to the higher value
Procedure: Evaluation of the claimed substance's anesthetic activity to reduce itch at genital candidiasis was studied when applied onto mucosae in the form of a 0.01% to 10% solution or by administering vaginal suppositories containing the claimed substance. To evaluate the efficiency the change in the itch sensation intensity on the Itch Severity Score (ISS) in 1 minute after application/administration of the product and after 5 days in case of everyday administration was used.

[4] = system: bleeding and pain after medical interventions; experiment: Bleeding and pain in ENT, upper respiratory and digestive systems interventions (Example 2.17); format: in vivo, human
Procedure: Evaluation of the claimed substance efficiency for reduction of bleeding and pain in ENT, upper respiratory and digestive systems pathologies, in the course of instrumentation studies of these systems. Patients with various medical interventions after treatment with haemostatic purpose and pain reduction were treated with the claimed preparation. An iron subsulfate solution was used as a reference. For efficiency evaluation the change in the pain sensation intensity on the visual analog scale (VAS) from 0 to 10 points was used.

[5] = system: chest pain and bloody sputum; experiment: Inhalation in chronic obstructive pulmonary disease: chest pain VAS and blood in sputum (Example 2.13); format: in vivo, human; details: for Pain sensation intensity on a visual analog scale: chronic obstructive pulmonary disease, inhalation by nebulizer
[6] = system: capillary-parenchymal bleeding from liver wounds; experiment: Hemostatic activity of solution or spray on superficial liver wound (Example 1.1); format: in vivo, rabbits
Procedure: The influence of the claimed substance on the hemostatic function was examined in rabbits of both sexes weighing 2000-4000 g. The experiments were carried out under general anesthesia. The animals underwent a laparotomy with a section made along the white line of the abdomen. The intestine was exteriorized into the wound and limited by wipes moistened with 0.9% sodium chloride solution (temperature […]), as well as the front surface of the liver. A superficial wound of the liver by the area of 1.5 cm^2 and the depth of 0.1 cm was inflicted by means of a razor.
Arrest of the capillary-parenchymal bleeding was carried out by uniform application of a 1% solution or a spray of the claimed substance on the entire area of the wound surface. At that, iron subsulfat was used for comparison of the bleeding arrest time. Hemostatic activity was evaluated by the change of the bleeding intensity.

pain with soft corn = experiment: Anesthetic activity, pain with soft corn, VAS (second Example 1.8); format: in vivo; details: soft corns
Procedure: Evaluation of the claimed substance's anesthetic activity was studied when dispersing a spray containing 0.01-10% of the preparation, or when applied at a concentration of 0.01% to 10% onto a bandaging material or a plaster for application onto the wound surface. An iron subsulfate solution was used as a reference. For efficiency evaluation the change in the pain sensation intensity on the visual analog scale (VAS) from 0 to 10 points in 1 minute after application of the product and after 2 days in everyday use was used.

[7] = Nanostructure by dynamic light scattering; format: physicochemical; details: preparation concentration 0.05 mg/ml
Procedure: (§1) The nanostructure is determined by the methods of dynamic light scattering using a Malvern Instruments Nanosizer Nano-ZS particle size analyzer and a FEI Tecnai G212Cryo12 transmission electron microscope enabling tp cool the samples at the boiling point of liquid nitrogen.

[8] = Nanostructure by electron-microscopic examination; format: physicochemical
Procedure: as §1

[9] = 1 minute after application of the preparation

Molecule: O=C(O)Cc1ccccc1Nc1c(Cl)cccc1Cl [Diclofenac solution, Diclofenac]
- Pain sensation intensity on a visual analog scale (eyeball pain; before treatment): 6.9 +/− 0.8 points
- Pain sensation intensity on a visual analog scale (eyeball pain; in 1 minute): 7.1 +/− 0.5 points
- Pain sensation intensity on a visual analog scale (eyeball pain; in 10 minute): 7.2 +/− 0.6 points

Molecule: CCCCOc1cc(C(=O)OCCN(CC)CC)ccc1N [Oxybuprocaine, oxybuprocaine]
- Pain sensation intensity on a visual analog scale (postoperative pain; [9]): 2.2 +/− 0.4
- Pain sensation intensity on a visual analog scale (postoperative pain; before treatment): 7.6 +/− 0.8
- Pain sensation intensity on a visual analog scale (postoperative pain; in 2 days (daily administration)): 0.5 +/− 0.1
- Rainier index (relative activity, Valet equation) [1]: 63.5
- duration of anesthesia [1]: 24 min

Molecule: O=[N+]([O-])[O-].[Ag+] [Silver nitrate solution (1:200), Silver nitrate]
- Relative intensity of bleeding ([2]; 120 seconds after application): 1035.7 ± 119.0 mg/min
- Relative intensity of bleeding ([2]; before application): 1437.5 ± 141.6 mg/min

Molecule: Ferric Subsulfate [iron subsulphate]
- Itch intensity on the Itch Severity Score (ISS) scale [3, 9]: 4 points
- Itch intensity on the Itch Severity Score (ISS) scale ([3]; in 5 days (for daily administration)): 5 points
- Pain sensation intensity on a visual analog scale ([4]; before treatment): 4.7 +/− 0.5 points
- Pain sensation intensity on a visual analog scale ([4]; in 1 minute): 4.5 +/− 0.4 points
- Pain sensation intensity on a visual analog scale ([4]; in 10 minute): 4.6 +/− 0.5 points
- Pain sensation intensity on a visual analog scale ([5]; before treatment): 4.2 +/− 0.7
- Pain sensation intensity on a visual analog scale ([5]; in 1 minute): 4.4 +/− 0.7
- Pain sensation intensity on a visual analog scale ([5]; in 5 days): 4.2 +/− 0.7
- Presence of bloody sputum ([5]; in 1 minute): +++
- Relative intensity of bleeding from liver wounds ([6]; 180 seconds after application): 652.6 ± 108.2 mg/min
- Relative intensity of bleeding from liver wounds ([6]; before application): 1326.4 ± 128.5 mg/min
- Pain sensation intensity on a visual analog scale (pain with soft corn; before treatment): 4.2 +/− 0.2 points
- Pain sensation intensity on a visual analog scale (pain with soft corn; in 1 minute): 4.5 +/− 0.4 points
- Pain sensation intensity on a visual analog scale (pain with soft corn; in 2 days, everyday use): 3.9 +/− 0.3 points

Molecule: polyammonia methanediamine chloride [the claimed preparation]
- size of globules in solution [7]: 10-15 nm
- size of globules [8]: 10-15 nm
- Rainier index (relative activity, Valet equation) [1]: 852.4
- duration of anesthesia [1]: 234 min
